Data reported in paper PMC3951181, “Rosamines Targeting the Cancer Oxidative Phosphorylation Pathway” (PLoS ONE, 2014).

Tests used:
MCF-7 breast carcinoma = experiment: MTT cell viability assay, 48 h; assay type: cell-based; details: Homo sapiens, MCF7, 48 h post-treatment, mean ± SD
Procedure: (§1) MCF-7 breast carcinoma and HCT-116 colon carcinoma cell lines were obtained from American Tissue Culture Collection (Virginia, USA) and maintained in RPMI 1640 medium supplemented with 10% FBS. HSC-2 oral cavity human squamous carcinoma cells were obtained from Health Science Research Resources Bank (Japan). HK-1, a previously characterized nasopharyngeal squamous carcinoma cells is a gift by Prof. Wong Y.C. from the University of Hong Kong. Both cell lines were grown in MEM medium supplemented with 10% FBS. For cell viability assay, cells at 4000 cells/well in 80 µl of medium were inoculated in 96-well plates and were allowed to adhere overnight. Cells were then treated with each compound at concentrations ranging from 0.001–10 µM giving the final volume of 100 µl in each well. At the end of incubation period, 15 µl of 5.0 mg/ml MTT in phosphate buffered saline (PBS) was added and incubated for 4 h. Medium and excessive MTT were aspirated and the resulting formazan was solubilized with 100 µl of dimethyl sulfoxide. Absorbance was read at 570 nm with SpectraMax M4 microplate spectrophotometer (Molecular Devices, CA).
(§2) The in vitro antitumor activity of rosamines was assessed using a 48 h endpoint cell viability methylthiazolyldiphenyl-tetrazolium bromide (MTT) assay against a panel of solid human tumor cell lines including breast carcinoma (MCF-7), colon carcinoma (HCT-116), oral squamous cell carcinoma (HSC-2) and nasopharyngeal carcinoma (HK-1). […] Within the halide series, cytotoxicities increase in the following order 4>3>[…] (Cl>Br>I), although not statistically significant (P>0.05).

[1] = system: HSC-2 oral cavity human squamous carcinoma cells; experiment: MTT cell viability assay, 48 h; assay type: cell-based; details: 48 h post-treatment, mean ± SD
Procedure: as §1, §2

HCT-116 colon carcinoma = experiment: MTT cell viability assay, 48 h; assay type: cell-based; details: Homo sapiens, 48 h post-treatment, mean ± SD
Procedure: as §1, §2

[2] = system: HK-1 nasopharyngeal squamous carcinoma cells; experiment: MTT cell viability assay, 48 h; assay type: cell-based; details: Homo sapiens, 48 h post-treatment, mean ± SD
Procedure: as §1, §2

[3] = system: panel of solid human tumor cell lines (MCF-7, HCT-116, HSC-2, HK-1); experiment: MTT cell viability assay, panel of cancer cell lines; assay type: cell-based; details: mean over MCF-7, HCT-116, HSC-2, HK-1
Procedure: as §1, §2

HSC-2 cells = experiment: JC-1 analysis of mitochondrial membrane potential; assay type: cell-based, human; details: for cell population with mitochondrial transmembrane potential loss: 0.1 µM, untreated control about 8% at 8 h
Procedure: The mitochondrial membrane potential was measured based on the potential–dependent accumulation of the cationic JC-1 dye which results in a shift of fluorescence emission from green (∼525 nm) to red (∼590 nm) due to the formation of J-aggregates. Therefore, mitochondrial depolarization is indicated by a decrease in the red/green fluorescence intensity ratio. Briefly, cells were collected and suspended in 1 ml warm media at approximately 1×10^6 cell/ml. In a control tube, 1 µl of 50 mM CCCP was added and incubated at 37°C for 5 min. Then, 10 µl of 200 µM JC-1 was added into the cells and incubated at 37°C for 30 min. Cells were washed twice with warm PBS, resuspended in 500 µl of PBS and analyzed on a FACSCalibur flow cytometer using 488 nm excitation with 530/30 nm and 585/42 nm bandpass emission filters.
Meanwhile, the mitochondrial transmembrane potential loss was more prominent in HSC-2 cells treated with 5 at 0.1 µM. Approximately 21% (P<0.05) of the cell population was affected in the first hour and the percentage increased drastically to 34% in 8 h. For the untreated control cells, the population of depolarized cells at 8 h remained at approximately 8%. […] CCCP is an oxidative phosphorylation decoupling agent which acts as a positive control for the experiment.

Complex I = experiment: Immunocapture ELISA microplate enzyme activity assay; assay type: biochemical; details: mouse liver mitochondria extract; 0.01–10 µM
ATP synthase = ATP synthase (Mus musculus, UniProt P56480+Q03265); experiment: as above; details: read-out: IC50 ATP synthase activity; mouse liver mitochondria extract; 0.01–10 µM
Procedure: (§4) Functional mitochondria were isolated from mouse liver by differential centrifugation method [14]. Briefly, a mouse (∼30 g) was starved overnight before sacrificed by cervical dislocation. The liver was harvested promptly and rinsed with ice-cold mitochondria isolation buffer (10 mM Tris-MOPS, 1 mM EGTA/Tris, 0.2 M sucrose, pH 7.4) until blood-free. The liver was then cut into small pieces in a beaker using scissors while keeping in an ice-bath. The buffer was replaced with 5 ml of fresh isolation buffer and the liver was homogenized with a Polytron probe (Ultra-Turrax T8, Ika-Werke, Germany) until smooth. The homogenate was centrifuged at 1000 g for 15 min at 4°C. The pellet was discarded and the supernatant was centrifuged at 12000 g for 15 min at 4°C to pellet the mitochondria. The mitochondria were washed twice by resuspending in 4 volumes of isolation buffer containing 1× protease cocktail inhibitor. The concentration of the mitochondrial protein was determined using the Bradford (Biorad protein assay) method. […]
(§5) In general, plate pre-coated with appropriate immunocapture antibody was incubated with mitochondria extract at recommended concentration to allow immobilization of their respective complexes. Complexes activity was measured by addition of substrates solution mix provided by the kit and compound was added at concentration ranging from 0.01–10 µM in triplicate. […]

[4] = system: panel of solid human tumor cell lines (MCF-7, HCT-116, HSC-2, HK-1); design: method as in PMID 19387338; details: anticancer activity in cellular assays; previous study; cited from earlier work
[5] = system: 4T1 mouse mammary carcinoma; experiment: In vivo antitumor efficacy, tumor allograft; design: species or system female BALB/c mice; details: for median day for 4T1 tumor in attaining two-doubling growth (RTV = 4): control approximately 9 days; for terminal percent test/control (% T/C): end of experiment (day 14)
Procedure: All animal experiments were conducted in accordance with protocols reviewed and approved by Dr. Haji Azizuddin Bin Haji Kamaruddin, Laboratory Animal Centre (LAC) Animal Care and Use Committee of Faculty of Medicine, University of Malaya (reference number FAR/14/07/2010/LSH). Female BALB/c mice aged between 6–8 weeks with a minimum weight of 17 g were maintained in a controlled environment of 12 h light-dark cycles with free access to food (standard pellet diet purchased from Altromin International, Lage, Germany) and purified water. Female mice were used because the hormonal environment essential for development of implanted 4TI mouse mammary carcinoma would be present.
(§3) Tumor allografts were initiated by subcutaneous injection of 5×10^5 4T1 mouse mammary carcinoma in 0.1 ml RPMI 1640 media into the inguinal mammary fat-pads of mice. Tumor growth was monitored and treatments were initiated when tumors reached volume of approximately 200 mm^3. To assess the tumor growth inhibition, 4T1 tumor bearing mice were randomized into groups with at least eight animals per group. Compound 5 was prepared at 0.3 mg/ml in normal saline and treatment was administered intravenously at 5 mg/kg on staging day or 3 mg/kg every other day for six treatments (q2dx6). For control group, normal saline was given. The animal weights and tumor volume were measured three times weekly for 14 d. The tumor volume was calculated using the equation: (length×width^2)/2 and relative tumor volume (RTV) was calculated for every tumor volume at any given time (VT) against the tumor volume at staging day (V0) using the equation: VT/V0. The RTV – time profile for each group was plotted and tumor growth delay in attaining a specified number of doublings compared to control was determined, [19]. Results were expressed as median ±95% confidence interval (n = 8).

[6] = Body weight and adverse effects in treated mice; assay type: in vivo
Procedure: as §3, with “Compound 5 was prepared at 0.3 mg/ml in normal saline and treatment was administered intravenously at 5 mg/kg on staging day or 3 mg/kg every other day for six treatments (q2dx6).” left out
Meanwhile, the terminal percent test/control (% T/C) values calculated at the end of experiment were 72% and 66% in mice receiving 5 mg/kg and 3 mg/kg (q2d×6) respectively. The antitumor efficacy of 5 is minimal as the % T/C attained after treatment had ended is not ≤40% activity, the minimal rating for a compound to be considered active. […]

Complex II = Complex II (Mus musculus, UniProt Q8K2B3+Q9CQA3+Q9CXV1+Q9CZB0); experiment: Immunocapture ELISA microplate enzyme activity assay; assay type: biochemical; details: mouse liver mitochondria extract; 0.01–10 µM
Complex II, sequence (Q8K2B3 43-664): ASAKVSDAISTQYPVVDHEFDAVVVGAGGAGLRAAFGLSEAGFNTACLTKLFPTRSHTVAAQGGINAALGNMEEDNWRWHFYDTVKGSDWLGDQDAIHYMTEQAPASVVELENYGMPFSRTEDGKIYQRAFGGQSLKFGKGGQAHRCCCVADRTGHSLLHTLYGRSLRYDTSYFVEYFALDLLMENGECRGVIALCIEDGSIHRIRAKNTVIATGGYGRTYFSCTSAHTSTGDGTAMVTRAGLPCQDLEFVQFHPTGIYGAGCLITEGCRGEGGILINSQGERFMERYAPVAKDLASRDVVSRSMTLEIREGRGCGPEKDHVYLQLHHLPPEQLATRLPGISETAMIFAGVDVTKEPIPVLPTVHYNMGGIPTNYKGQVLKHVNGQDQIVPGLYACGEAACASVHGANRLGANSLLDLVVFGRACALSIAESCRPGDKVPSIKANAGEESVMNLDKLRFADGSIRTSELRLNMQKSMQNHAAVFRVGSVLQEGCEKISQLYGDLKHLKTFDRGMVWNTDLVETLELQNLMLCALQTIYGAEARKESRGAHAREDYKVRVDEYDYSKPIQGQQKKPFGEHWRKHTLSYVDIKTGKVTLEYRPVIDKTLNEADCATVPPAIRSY
Complex II, sequence (Q9CQA3 31-282): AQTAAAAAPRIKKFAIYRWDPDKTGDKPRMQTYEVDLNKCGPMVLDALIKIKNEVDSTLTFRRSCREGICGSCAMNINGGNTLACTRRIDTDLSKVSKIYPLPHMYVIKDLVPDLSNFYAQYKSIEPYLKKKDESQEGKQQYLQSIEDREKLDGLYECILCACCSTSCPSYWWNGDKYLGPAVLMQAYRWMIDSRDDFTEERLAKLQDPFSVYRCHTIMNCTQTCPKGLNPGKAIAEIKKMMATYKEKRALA
Complex II, sequence (Q9CZB0 30-169): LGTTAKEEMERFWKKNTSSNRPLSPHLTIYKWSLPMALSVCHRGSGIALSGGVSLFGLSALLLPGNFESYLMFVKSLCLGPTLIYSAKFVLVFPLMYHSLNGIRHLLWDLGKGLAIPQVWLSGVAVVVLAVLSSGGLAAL
Complex II, sequence (Q9CXV1 57-159): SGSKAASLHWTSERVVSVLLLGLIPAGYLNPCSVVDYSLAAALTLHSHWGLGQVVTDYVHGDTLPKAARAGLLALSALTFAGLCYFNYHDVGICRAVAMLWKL

Complex IV = Complex IV (Mus musculus, UniProt P00397+P00405+P00416); experiment: as above; details: read-out: IC50 Complex IV activity; mouse liver mitochondria extract; 0.01–10 µM
Procedure: as §4, §5

[7] = system: NCI-60 human tumor cell lines; experiment: NCI-60 screen, sulforhodamine B, whole panel; assay type: cell-based; details: overall value for the NCI-60 cell lines screen; for GI50: Homo sapiens
Procedure: NCI-60 cell panel screening was performed by the NCI/National Institutes of Health developmental therapeutics program (Bethesda, US). This platform allows the determination of growth inhibitory profiles of test compounds on 60 different human cancer cell lines, representing leukemia, melanoma and cancers of the lung, colon, central nervous system, ovary, breast, prostate, and renal subpanel. Sulforhodamine B assay was used to assess the cytotoxicity of test agents in a panel of 60 cell lines. Briefly, the human tumor cell lines of the cancer screening panel were grown in RPMI 1640 medium containing 5% FBS and 2 mM L-glutamine. For a typical screening experiment, cells were inoculated into 96 well microtiter plates in 100 µl at plating densities depending on the doubling time of individual cell lines. After cell inoculation, the microtiter plates are incubated at 37°C, 5% CO2 and 100% relative humidity for 24 h. Following incubation, aliquots of 100 µl of compound at different dilutions were added to the appropriate microtiter wells and were further incubated for 48 h. At the assay end-point, cells were fixed with trichloroacetic acid followed by Sulforhodamine B staining for cellular protein content. Sulforhodamine B absorbance was read at a wavelength of 515 nm as a measurement of cell density.

[8] = Solubility in aqueous media for treatment stock; assay type: physicochemical; details: reconstitution of treatment stock at 10 mM
Procedure: Compounds 3, 4 and 6 were synthesized to test if meso-replacement with 4-bromobenzene 3, 4-chlorobenzene 4 or 2-furyl 6 groups would affect the anticancer activity. In addition, the 4-iodobenzene 7 or 2-thiofuran meso substituents 8 and unsymmetrical piperidine/[…] amine substituents were synthesized and investigated. Rosamines 1–4 and 7 were not appreciably water-soluble so they were reconstituted in DMSO at 10 mM as treatment stock.

SMILES	IC50 (MCF-7 breast carcinoma)	IC50 [1]	IC50 (HCT-116 colon carcinoma)	IC50 [2]	IC50 [3]	water solubility [8]	also measured
c1ccc(-c2c3ccc(=[N+]4CCCCC4)cc-3oc3cc(N4CCCCC4)ccc23)cc1 [Rosamine 1]	1200 ± 700 nM	90 nM	600 ± 410 nM	610 ± 70 nM	630 nM		
N#CC(C#N)=NNc1cccc(Cl)c1 [CCCP, Carbonyl cyanide 3-chlorophenylhydrazone, reference compound]							cell population with loss of membrane potential (HSC-2 cells; 5 µM for 5 min, positive control): 70%
c1csc(-c2c3ccc(=[N+]4CCCCC4)cc-3oc3cc(N4CCCCC4)ccc23)c1 [Rosamine 5]	180 ± 20 nM	90 ± 10 nM	70 ± 20 nM	100 nM	110 nM	readily solubilized in aqueous media	IC50 (Complex I): > 10000 nM; IC50 (ATP synthase): 3000 ± 800 nM; fold more active than phenyl substituted compound 1 [4]: 5 fold; median day for 4T1 tumor in attaining two-doubling growth (RTV = 4) ([5]; 3 mg/kg i.v. q2d×6): ~13 days; terminal percent test/control (% T/C) ([5]; 3 mg/kg i.v. q2d×6): 66%; two-doubling tumor growth delay (T-C)/C ([5]; 5 mg/kg single bolus i.v.): 22%; median day for 4T1 tumor in attaining two-doubling growth (RTV = 4) ([5]; 5 mg/kg single bolus i.v.): ~11 days; terminal percent test/control (% T/C) ([5]; 5 mg/kg single bolus i.v.): 72%; body weight loss ([6]; 4T1 tumor bearing mice, 5 mg/kg or 3 mg/kg (q2d×6) i.v., 14 d): ≤ 15%; adverse effects ([6]; mice, 10 mg/kg dose): unacceptable adverse effects such as weight loss, diarrhea and sudden death; IC50 (Complex II): 9600 ± 100 nM; IC50 (Complex IV): > 10000 nM; GI50 [7]: 100 nM; Log10GI50 [7]: −7; cell population with mitochondrial transmembrane potential loss (HSC-2 cells; 8 h): 34%; cell population with mitochondrial transmembrane potential loss (HSC-2 cells; within 1 h after treatment): Approximately 21%
c1csc(-c2c3ccc(=[N+]4CCOCC4)cc-3oc3cc(N4CCCCC4)ccc23)c1 [Rosamine 8, Unsymmetrical Thiofuryl Rosamine]	170 ± 100 nM	220 ± 110 nM	70 ± 20 nM	530 nM	250 nM	readily solubilized in aqueous media	
Ic1ccc(-c2c3ccc(=[N+]4CCCCC4)cc-3oc3cc(N4CCCCC4)ccc23)cc1 [Rosamine 2]	590 ± 120 nM	350 ± 50 nM	390 ± 70 nM	290 ± 30 nM	410 nM		IC50 (Complex I): > 10000 nM; IC50 (ATP synthase): 3900 ± 300 nM; fold more active than phenyl substituted compound 1 [4]: 5 fold; IC50 Complex II activity (Complex II): did not reach 50% up to maximum concentrations studied; IC50 (Complex IV): > 10000 nM; cell population with mitochondrial transmembrane potential loss (HSC-2 cells; 8 h): 19%; cell population with mitochondrial transmembrane potential loss (HSC-2 cells; within 1 h after treatment): 9%
Clc1ccc(-c2c3ccc(=[N+]4CCCCC4)cc-3oc3cc(N4CCCCC4)ccc23)cc1 [Rosamine 4, 4-Chlorobenzene Rosamine]	150 ± 40 nM	90 ± 10 nM	220 ± 140 nM	250 ± 10 nM	180 nM		GI50 [7]: 100 nM; Log10GI50 [7]: −7
c1coc(-c2c3ccc(=[N+]4CCCCC4)cc-3oc3cc(N4CCCCC4)ccc23)c1 [Rosamine 6, Furan Rosamine]	310 ± 140 nM	90 nM	100 ± 30 nM	310 ± 80 nM	200 nM	readily solubilized in aqueous media	
Brc1ccc(-c2c3ccc(=[N+]4CCCCC4)cc-3oc3cc(N4CCCCC4)ccc23)cc1 [Rosamine 3, 4-Bromobenzene Rosamine]	290 ± 40 nM	190 ± 110 nM	300 ± 80 nM	340 nM	280 nM		
Ic1ccc(-c2c3ccc(=[N+]4CCOCC4)cc-3oc3cc(N4CCCCC4)ccc23)cc1 [Rosamine 7, Unsymmetrical 4-Iodophenyl Rosamine]	260 ± 70 nM	220 ± 100 nM	240 ± 70 nM	440 ± 10 nM	290 nM		
